Measured values: patent US20120165403A1, “METHODS OF INHIBITING THE ACTIVITY OF HSP90 AND/OR ARYL HYDROCARBON RECEPTOR” (UNIVERSITY OF ROCHESTER, priority 2004, published 2012)

Molecular target: T1, AhR (Mus musculus, UniProt P30561)
T1 construct: made in house; host or cells: coupled transcription/translation in rabbit reticulocyte lysate (TNT, Promega), 35S-labelled
T1 sequence (P30561 10-848): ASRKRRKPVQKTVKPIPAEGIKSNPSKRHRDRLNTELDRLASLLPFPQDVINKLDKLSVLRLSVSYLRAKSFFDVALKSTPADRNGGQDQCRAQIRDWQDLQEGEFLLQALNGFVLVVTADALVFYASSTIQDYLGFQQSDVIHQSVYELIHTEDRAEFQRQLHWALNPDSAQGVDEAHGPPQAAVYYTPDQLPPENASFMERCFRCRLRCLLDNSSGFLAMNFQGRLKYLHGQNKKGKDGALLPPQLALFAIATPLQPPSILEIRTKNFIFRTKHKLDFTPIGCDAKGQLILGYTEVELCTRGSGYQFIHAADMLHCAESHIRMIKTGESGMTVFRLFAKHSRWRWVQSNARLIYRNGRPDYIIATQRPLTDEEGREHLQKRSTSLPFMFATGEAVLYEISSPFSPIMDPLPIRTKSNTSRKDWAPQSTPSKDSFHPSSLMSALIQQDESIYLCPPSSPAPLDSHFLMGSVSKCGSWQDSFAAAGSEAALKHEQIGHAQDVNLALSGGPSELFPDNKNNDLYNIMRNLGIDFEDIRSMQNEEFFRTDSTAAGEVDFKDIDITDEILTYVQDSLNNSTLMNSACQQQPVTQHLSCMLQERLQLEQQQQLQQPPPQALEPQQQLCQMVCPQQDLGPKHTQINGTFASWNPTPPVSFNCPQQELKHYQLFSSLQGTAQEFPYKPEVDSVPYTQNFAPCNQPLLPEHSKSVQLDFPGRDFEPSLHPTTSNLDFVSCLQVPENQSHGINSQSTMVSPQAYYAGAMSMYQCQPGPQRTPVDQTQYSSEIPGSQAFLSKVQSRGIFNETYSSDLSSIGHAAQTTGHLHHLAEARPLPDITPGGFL
Assay: Affinity chromatography on EGCG-conjugated Sepharose, in vitro translated AhR
Format: binding, murine
Details: 35S-AhR in vitro translated in RRL
Description: Murine AhR and ARNT cDNA (obtained from J. Whitlock and O. Hankinson, respectively) were inserted into pcDNA3 (Invitrogen, Carlsbad, Calif.). Chicken hsp90 constructs (FIG. 5), c90711hsp (wild-type), c90G94D (wild-type point mutant gly94→Asp (Grenert et al., J. Biol. Chem. 272:23843-23850 (1997), which is hereby incorporated by reference in its entirety), c90D92A (wild-type point mutant Asp92→Ala (Sullivan et al., J. Biol. Chem. 268:20373-20379 (1993), which is hereby incorporated by reference in its entirety), c90N221 (wild-type truncation mutant encoding a.a. 221-728 (Sullivan et al., J. Biol. Chem. 268:20373-20379 (1993), which is hereby incorporated by reference in its entirety)), c90N303 (a.a. 303-728) and c90N538 (a.a. 538-728) were kind gifts from Dr. D. Toft (Rochester, Minn.). The C-terminal truncation mutant c900507 (a.a. 1-221) was obtained from Dr. L. Neckers (Rockville, Md.) (Grenert et al., J. Biol. Chem. 272:23843-23850 (1997); Marcu et al., J. Biol. Chem. 275:37181-37186 (2000), which are hereby incorporated by reference in their entirety). Human p23 cDNA was excised from pQE80-p23 (obtained from W. Chan Stockton, Calif.) by sequential digests using the restriction enzymes Sad (3′-end) and BamHI (5′-end) and inserted into the similarly digested pET28a (Novagen, Madison, Wis.). […]

With `O=C(O[C@@H]1Cc2c(O)cc(O)cc2O[C@@H]1c1cc(O)c(O)c(O)c1)c1cc(O)c(O)c(O)c1` [EGCG, epigallocatechin gallate] the “binding of AhR to immobilized EGCG” value was “not able to bind immobilized EGCG”.
